In the NIST ThermoML archive (doi:10.1021/je030167i):

Legend:
[1] = xn = mol fraction of the nth substance listed; details: 101.3 kPa, Liquid
[2] = 101.3 kPa, Liquid

CC1CCCO1 (configuration not stated) [2-methyltetrahydrofuran] + CCCCCl
[1]
Details	kinematic viscosity, 298.15 K [m2/s]	kinematic viscosity, 313.15 K [m2/s]	mass density, 298.15 K [kg/m3]	mass density, 313.15 K [kg/m3]
x2 = 0	5.59e-07	4.92e-07	849.28	834.01
x2 = 0.0494	5.56e-07	4.88e-07	850.97	835.48
x2 = 0.1008	5.52e-07	4.85e-07	852.97	837.19
x2 = 0.203	5.43e-07	4.78e-07	856.41	840.52
x2 = 0.3004	5.35e-07	4.71e-07	859.76	843.74
x2 = 0.3963	5.27e-07	4.64e-07	862.73	846.73
x2 = 0.4969	5.18e-07	4.56e-07	865.86	849.69
x2 = 0.5976	5.09e-07	4.49e-07	869.09	852.75
x2 = 0.6993	5.01e-07	4.41e-07	872.11	855.69
x2 = 0.7993	4.93e-07	4.34e-07	874.9	858.36
x2 = 0.8988	4.85e-07	4.27e-07	878.01	861.05
x2 = 0.9483	4.82e-07	4.24e-07	879.23	862.56

CC1CCCO1 (configuration not stated) [2-methyltetrahydrofuran] + CCCCO
[1]
Details	kinematic viscosity, 298.15 K [m2/s]	kinematic viscosity, 313.15 K [m2/s]	mass density, 298.15 K [kg/m3]	mass density, 313.15 K [kg/m3]
x2 = 0	5.59e-07	4.92e-07	849.28	834.01
x2 = 0.0488	5.91e-07	5.11e-07	847.62	832.35
x2 = 0.1039	6.22e-07	5.35e-07	845.56	830.5
x2 = 0.205	6.93e-07	5.88e-07	841.78	827.07
x2 = 0.3006	7.7e-07	6.52e-07	838.03	823.64
x2 = 0.4051	8.81e-07	7.34e-07	833.86	820
x2 = 0.5099	1.05e-06	8.41e-07	829.37	815.98
x2 = 0.6036	1.21e-06	9.69e-07	825.28	812.07
x2 = 0.7034	1.47e-06	1.16e-06	820.68	807.96
x2 = 0.8042	1.84e-06	1.39e-06	815.8	803.45
x2 = 0.906	2.4e-06	1.76e-06	810.56	798.76
x2 = 0.9582	2.8e-06	1.99e-06	807.81	796.23

CCCCO [butan-1-ol]
[2]
Details	kinematic viscosity [m2/s]	mass density [kg/m3]
298.15 K	3.19e-06	805.56
313.15 K	2.22e-06	794.19

CCCCO [butan-1-ol] + CC1CCCO1
[1], x1 = 1
Details	kinematic viscosity [m2/s]	mass density [kg/m3]
298.15 K	3.19e-06	805.56
313.15 K	2.22e-06	794.19

CCC(C)O (configuration not stated) [butan-2-ol]
[2]
Details	kinematic viscosity [m2/s]	mass density [kg/m3]
298.15 K	3.73e-06	802.25
313.15 K	2.24e-06	789.44

CCC(C)O (configuration not stated) [butan-2-ol] + CC1CCCO1
[1], x1 = 1
Details	kinematic viscosity [m2/s]	mass density [kg/m3]
298.15 K	3.73e-06	802.25
313.15 K	2.24e-06	789.44
